Assay results published in patent publication US20030166202A1, “P450 Monooxygenases of the cyp79 family” (priority 2000, published 2003).
Read-outs that look alike come from different tables or passages of the source.

What was measured:
[1] = target: T1, CYP79A2 (Arabidopsis thaliana, UniProt Q9FLC8); assay: CYP79A2 activity in E. coli spheroplasts reconstituted with NADPH:cytochrome P450 oxidoreductase
T1 sequence (Q9FLC8 7-529 limits assumed): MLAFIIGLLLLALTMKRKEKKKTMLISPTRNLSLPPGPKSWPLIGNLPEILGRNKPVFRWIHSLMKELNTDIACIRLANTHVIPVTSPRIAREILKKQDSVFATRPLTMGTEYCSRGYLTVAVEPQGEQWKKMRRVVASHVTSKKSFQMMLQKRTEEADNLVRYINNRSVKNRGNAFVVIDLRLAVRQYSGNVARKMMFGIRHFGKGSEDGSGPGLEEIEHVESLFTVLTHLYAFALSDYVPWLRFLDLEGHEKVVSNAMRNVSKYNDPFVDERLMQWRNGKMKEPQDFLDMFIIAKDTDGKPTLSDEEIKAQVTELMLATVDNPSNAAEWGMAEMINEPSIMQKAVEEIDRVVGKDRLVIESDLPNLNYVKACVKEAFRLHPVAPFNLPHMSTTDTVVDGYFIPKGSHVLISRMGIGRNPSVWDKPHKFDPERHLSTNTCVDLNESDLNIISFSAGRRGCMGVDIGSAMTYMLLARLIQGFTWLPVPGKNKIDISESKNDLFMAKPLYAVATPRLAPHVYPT

[2] = target: CYP79F1 (Arabidopsis thaliana, UniProt Q949U1, M2A); settings: E. coli C43(DE3) spheroplasts, GC-MS or TLC
Sequence of CYP79F1 (Q949U1 whole entry M2A): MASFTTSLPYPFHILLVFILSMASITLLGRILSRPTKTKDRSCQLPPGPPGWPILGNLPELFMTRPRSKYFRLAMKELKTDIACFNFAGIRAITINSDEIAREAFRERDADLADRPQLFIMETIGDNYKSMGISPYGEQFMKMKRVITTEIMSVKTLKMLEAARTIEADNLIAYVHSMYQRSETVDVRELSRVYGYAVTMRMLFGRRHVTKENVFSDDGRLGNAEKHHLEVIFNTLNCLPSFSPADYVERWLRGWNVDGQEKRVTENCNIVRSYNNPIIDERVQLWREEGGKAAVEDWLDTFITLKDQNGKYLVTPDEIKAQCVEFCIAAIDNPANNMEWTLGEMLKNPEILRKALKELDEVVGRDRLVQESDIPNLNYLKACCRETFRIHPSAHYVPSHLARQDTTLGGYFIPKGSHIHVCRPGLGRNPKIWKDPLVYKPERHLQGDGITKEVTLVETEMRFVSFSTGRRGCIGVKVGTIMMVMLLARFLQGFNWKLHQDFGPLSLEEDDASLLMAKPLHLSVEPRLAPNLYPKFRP
Method: In a typical enzyme assay, 5 μl spheroplasts and 4 μl NADPH:cytochrome P450 reductase (equivalent to 0.04 units defined as 1 μmol cytochrome c/min) are incubated with substrate in buffer containing 30 mM KPi, pH 7.5, 3 mM NADPH, 3 mM reduced glutathione, 0.042% Tween 80, 1 mg ml^−1 L-α-dilauroylphosphatidylcholine in a total volume of 30 μl. Reaction mixtures containing spheroplasts of E. coli C43(DE3) transformed with empty vector are used as controls in all assays. 3.3 μM L-[U-^14C]phenylalanine (453 mCi/mmol; Pharmacia), 3.7 μM L-[U-^14C]tyrosine (449 mCi/mmol; Pharmacia), 0.1 mM L-[methyl-^14C]methionine (56 mCi/mmol; Pharmacia), and 24 μM L-[side chain-3-^14C]tryptophan (56.5 mCi/mmol; NEN) are tested as potential substrates. After incubation at 28° C. for 1 hour, half of the reaction mixture is analyzed by TLC on Silica Gel 60 F254 sheets (Merck) using toluene/ethyl acetate 5:1 (v/v) as eluent. Radiolabelled bands are visualized and quantified using a STORM 840 phosphoimager (Pharmacia). For GC-MS analysis, 450 μl reaction mixture containing 3.3 mM L-methionine (Sigma), 3.3 mM DL-dihomomethionine or 3.3 mM DL-trihomomethionine, respectively, are incubated for 4 hours at 25° C. and extracted with a total volume of 600 μl CHCl3. The organic phase is collected, evaporated, and the residue is dissolved in 15 μl CHCl3 and analyzed by GC-MS. […] An SGE column (BPX5, 25 m×0.25 mm, 0.25 μm film thickness) is used (heat pressure 100 kPa, splitless injection). The oven temperature program is as follows: 80° C. for 3 minutes, 80° C. to 180° C. at 5° C. min^−1, 180° C. to 300° C. at 20° C. min^−1, and 300° C. for 10 min. The ion source is run in EI mode (70 eV) at 200° C. […] DL-dihomomethionine, DL-trihomomethionine, 5-methylthiopentanaldoxime and 6-methylthiohexanaldoxime are synthesized as described (Dawson et al, J. Biol. Chem. 268: 27154-27159, 1993) and authenticated by NMR spectroscopy.

[3] = target: T2, CYP79D2 (Manihot esculenta, UniProt Q9M7B7); type: biochemical, cassava
T2 construct: made in house
T2 sequence (Q9M7B7 whole entry): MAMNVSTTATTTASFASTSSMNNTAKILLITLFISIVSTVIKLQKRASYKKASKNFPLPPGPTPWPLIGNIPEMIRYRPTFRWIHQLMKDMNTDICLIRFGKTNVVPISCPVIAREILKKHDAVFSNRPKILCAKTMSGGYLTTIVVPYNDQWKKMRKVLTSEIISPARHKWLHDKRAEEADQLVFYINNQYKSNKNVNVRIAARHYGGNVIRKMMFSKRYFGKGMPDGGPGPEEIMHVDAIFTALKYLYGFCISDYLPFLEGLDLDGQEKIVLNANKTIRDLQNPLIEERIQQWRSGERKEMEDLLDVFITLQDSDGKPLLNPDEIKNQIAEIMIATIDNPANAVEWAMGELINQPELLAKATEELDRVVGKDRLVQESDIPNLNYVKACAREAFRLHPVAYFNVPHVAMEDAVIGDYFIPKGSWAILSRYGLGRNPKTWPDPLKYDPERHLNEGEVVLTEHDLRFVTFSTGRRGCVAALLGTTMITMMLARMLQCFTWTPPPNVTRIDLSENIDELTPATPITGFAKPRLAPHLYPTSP
Method: Investigations into the substrate specificity of CYP79D1, CYP79D2, CYP79E1, CYP79E2, CYP79A2, CYP79B2, CYP79B5 and CYP79F1 are carried out in E. coli spheroplasts reconstituted with sorghum NADPH-cytochrome P450 oxidoreductase in the presence of high amounts of lipids. L-α-dioleyl phosphatidyl choline and L-α-dilauroyl phosphatidyl choline are preferred lipids for the reconstitution. […] Depending on the nature of the substrate, substrate specificity may also be determined using intact P. pastoris cells or intact E. coli cells.
The ability of a P450 monooxygenase to convert an aliphatic or aromatic amino acid or chain-elongated methionine homologue to the corresponding oxime can be tested in an assay (see also example 5) comprising
a) incubating a reaction mixture comprising the P450 monooxygenase of the present invention or spheroplasts of E.coli cells expressing said enzyme, the parent amino acid, NADPH, oxygen, NADPH-cytochrome P450 oxidoreductase and lipid at ambient temperature for a certain period of time which is between 2 min and 2 to 6 hours;
b) terminating the reaction for example by the addition of a denaturing compounds such as ethyl acetate; and
c) chemically identifying and quantifying the aldoxime produced.

[4] = target: T3, CYP79B2 (Arabidopsis thaliana, UniProt O81346); assay: CYP79B2 activity in E. coli spheroplasts reconstituted with NADPH:cytochrome P450 reductase
T3 sequence (O81346 1-541): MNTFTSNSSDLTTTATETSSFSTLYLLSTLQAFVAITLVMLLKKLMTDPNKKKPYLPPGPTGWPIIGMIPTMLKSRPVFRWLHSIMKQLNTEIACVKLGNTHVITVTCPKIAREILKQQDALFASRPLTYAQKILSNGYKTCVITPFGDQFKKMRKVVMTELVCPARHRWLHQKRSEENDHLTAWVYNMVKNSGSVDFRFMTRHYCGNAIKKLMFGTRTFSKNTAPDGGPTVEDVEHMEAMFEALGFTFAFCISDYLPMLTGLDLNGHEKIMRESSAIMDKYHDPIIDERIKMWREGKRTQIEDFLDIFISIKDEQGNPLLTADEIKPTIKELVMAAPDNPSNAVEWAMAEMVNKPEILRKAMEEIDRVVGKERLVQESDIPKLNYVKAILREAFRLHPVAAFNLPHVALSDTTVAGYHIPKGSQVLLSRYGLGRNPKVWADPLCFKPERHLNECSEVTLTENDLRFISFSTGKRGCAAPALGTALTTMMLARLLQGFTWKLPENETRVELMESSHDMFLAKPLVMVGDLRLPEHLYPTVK

[5] = target: CYP79D1 (Manihot esculenta, UniProt Q9M7B8); settings: for inhibition of CYP79D1 val-oxime formation: reconstitution in presence of inhibitor
Sequence of CYP79D1 (Q9M7B8 2-542): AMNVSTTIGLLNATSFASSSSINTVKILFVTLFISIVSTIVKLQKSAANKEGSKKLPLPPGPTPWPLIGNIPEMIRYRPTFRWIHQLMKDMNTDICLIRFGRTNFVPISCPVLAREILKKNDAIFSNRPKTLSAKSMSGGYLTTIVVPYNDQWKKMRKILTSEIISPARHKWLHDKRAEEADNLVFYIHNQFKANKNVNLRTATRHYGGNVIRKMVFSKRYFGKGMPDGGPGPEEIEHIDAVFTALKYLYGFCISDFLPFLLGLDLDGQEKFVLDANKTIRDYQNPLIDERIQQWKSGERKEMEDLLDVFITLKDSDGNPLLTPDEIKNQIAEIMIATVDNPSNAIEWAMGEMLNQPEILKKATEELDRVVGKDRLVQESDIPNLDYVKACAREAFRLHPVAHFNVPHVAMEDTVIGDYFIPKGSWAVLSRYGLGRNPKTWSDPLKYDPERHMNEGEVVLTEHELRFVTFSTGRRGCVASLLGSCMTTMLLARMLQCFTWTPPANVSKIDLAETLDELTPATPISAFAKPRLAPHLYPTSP
Method: Isolated, recombinant CYP79D1 is reconstituted and its catalytic activity determined in vitro using reaction mixtures with a total volume of 30 μl containing 2.5 pmol CYP79D1, 0.05 U NADPH P450-oxidoreductase (Benveniste et al, Biochem J 235: 365-373, 1986), 10.6 mM L-α-dioleyl phosphatidylcholine, 0.35 μCi [U-^14C]-L-amino acid (L-Val, L-Ile, L-Leu, L-Tyr or L-Phe; Amersham, Sweden), 1 mM NADPH, 0.1 M NaCl and 20 mM KPi pH 7.9. In assays containing ^14C-L-valine or ^14C-L-isoleucine, different amounts of unlabeled L- and D-amino acids (0-6 mM) are added. After incubation for 10 minutes at 30° C. the products formed are extracted into 60 μl ethyl acetate and separated on TLC sheets (Merck Kieselgel 60F254) using n-pentane/diethyl ether (50:50, v/v) or toluene/ethyl acetate (5:1, v/v) as eluents for aliphatic compounds and aromatic compounds, respectively. ^14C-labeled oximes are visualized and quantified using a STORM 840 phosphor imager (Molecular Dynamics, CA, USA). The activity of CYP79D1 is additionally measured in the presence of the inhibitors tetcyclasis, ABT and DPI under the same conditions as described above. For in vivo activity assays 200 μl P. pastoris cells are pelleted and resuspended in 100 μl 50 mM Tricine pH 7.9 and 0.35 μCi [U-^14C]-L-valine or L-isoleucine. After incubation for 30 minutes at 30° C. the cells are extracted with ethyl acetate and the products formed are analyzed as above.
CYP79D1 is reconstituted with sorghum NADPH-P450 oxidoreductase in the presence of high amounts of the lipid L-α-dioleyl phosphatidylcholine and 100 mM NaCl. […] To examine the effect of inhibitors on isolated CYP79D1, reconstitutions are performed in the presence of tetcyclasis, ABT and DPI using the same conditions as for cassava microsomes.

[6] = test system: cassava microsomes; assay: Metabolism of amino acids by cassava microsomes; type: biochemical; settings: amino acid as substrate
[7] = substrate: N[C@@H](Cc1ccccc1)C(=O)O; assay: purified protein, by the assay type; settings: other: spheroplasts expressing 'native' CYP79A2, 2 hours at 26° C., pH 7.5

Molecule: N[C@@H](Cc1ccccc1)C(=O)O [L-phenylalanine]
- production of the respective aldoxime by CYP79A2 ([1]; TLC or GC-MS detection): produce two radiolabelled compounds which comigrate with the (E)- and (Z)-isomers of phenylacetaldoxime
- formation of the corresponding aldoxime by CYP79F1 [2]: did not result in the formation of detectable amounts of the corresponding aldoximes
- conversion to the corresponding oxime by CYP79D2 [3]: Neither L-Leucine, L-phenylalanine nor L-tyrosine are metabolized
- oxime production by CYP79B2 ([4]; radiolabelled amino acid, TLC): No oxime producing activity is detected

Molecule: CCCCCCCC/C=C\CCCCCCCC(=O)OCCOCC(OCCO)C1OCC(OCCO)C1OCCO (stereo not drawn) [Tween 80]
- increase in aldoxime production ([1]; additive at final concentration 0.083% (v/v)): 1.5 fold

Molecule: CSCCCCCC(N)C(=O)O (racemic) [DL-trihomomethionine]
- formation of the corresponding aldoxime by CYP79F1 [2]: two compounds with retention times and fragmentation pattern identical with those of the E/Z-isomers of the synthetic 6-methylthiopentanaldoxime are detected

Molecule: c1ccc2c(c1)[I+]c1ccccc1-2 [DPI, reference compound]
- inhibition of CYP79D1 val-oxime formation [5]: completely inhibits

Molecule: Clc1ccc(N2N=NC3C4CC(C5N=NC45)C32)cc1 (stereo not drawn) [tetcyclasis, reference compound]
- inhibition of CYP79D1 val-oxime formation [5]: inhibited

Molecule: CC(C)[C@H](N)C(=O)O [L-valine]
- conversion to the corresponding oxime by CYP79D2 [3]: found to convert
- metabolism / cyanide production by cassava microsomes [6]: cyanide is produced
- formation of the corresponding oxime / metabolism by CYP79D1 [5]: corresponding oximes are formed

Molecule: CC(C)[C@@H](N)C(=O)O [D-valine]
- metabolism / cyanide production by cassava microsomes [6]: no metabolism is observed
- binding to the active site of CYP79D1 (competition with 14C-L-valine) [5]: does not bind with high affinity
- formation of the corresponding oxime / metabolism by CYP79D1 [5]: neither the cassava microsomes nor isolated CYP79D1 metabolize

Molecule: CC[C@H](C)[C@H](N)C(=O)O [L-isoleucine]
- conversion to the corresponding oxime by CYP79D2 [3]: found to convert
- metabolism / cyanide production by cassava microsomes [6]: cyanide is produced
- conversion rate relative to L-valine [5]: approximately 60%
- formation of the corresponding oxime / metabolism by CYP79D1 [5]: corresponding oximes are formed

Molecule: N[C@@H](CCC(=O)N[C@@H](CS)C(=O)NCC(=O)O)C(=O)O [reduced glutathione]
- effect on aldoxime production ([1]; additive at final concentration 3 mM): stimulates aldoxime production, but to a lesser extent
- increase of CYP79B2 activity ([4]; addition of 1.5 mM): 1.8 fold

Molecule: CSCC[C@H](N)C(=O)O [L-methionine]
- production of the respective aldoxime by CYP79A2 [1]: does not result in production of detectable amounts of the respective aldoximes
- formation of the corresponding aldoxime by CYP79F1 [2]: did not result in the formation of detectable amounts of the corresponding aldoximes

Molecule: Oc1ccc(Cl)cc1Cl [2,4-dichlorophenol, reference compound]
- inhibition of CYP79B2 activity ([4]; 100 mM H2O2, 1 mM MnCl2 or 800 μM 2,4-dichlorophenol added to reconstitution assay): 72%

Molecule: CSCCCCC(N)C(=O)O (racemic) [DL-dihomomethionine]
- formation of the corresponding aldoxime by CYP79F1 [2]: two compounds, which are not present in the control reactions, are detected by GC-MS

Molecule: NC(CCc1ccccc1)C(=O)O (racemic) [DL-homophenylalanine]
- production of the respective aldoxime by CYP79A2 [1]: absence of detectable amounts of the homophenylalanine-derived aldoxime

Molecule: CC[C@@H](C)[C@@H](N)C(=O)O [D-isoleucine]
- metabolism / cyanide production by cassava microsomes [6]: no metabolism is observed

B1: CYP79A2 (Arabidopsis thaliana) (protein)
chain: T1 sequence (Q9FLC8 7-529 limits assumed)
- Km [7]: 6.7 μmol I^−1
